How the values were obtained:
[1] = system: "acetic contortions" in mice; test: Effect on analgetic action of Tramal and Analgin on the model "acetic contortions"; assay type: in vivo, white mongrel mice
Protocol: (§1) The tests were conducted on males of white mongrel mice weighing 22-24 grams. The specific pain response (“contortions”) were elicited by intraperitoneal administration to mice of 0.75% acetic acid solution. The following signs were taken into consideration: the number of seizure contractions of abdominal muscles accompanied by stretching the hind limbs and sagging the back. Analgetic effect was assessed by decrease in the number of contortions in animals in percent to the control for 15 minutes post administration of acetic acid. The technique of the tests is disclosed in Koster R., Anderson M., de Beer B.//Fed. Proc. 1959. V. 18. P. 412. Compounds under testing were administered intraperitoneally (using a probe) at a dose 10 μg/kg 60 minutes prior to injection of the acid. Diclofenac (10 mg/kg) was used as a reference drug. Analgetic effect was calculated according to the formula: […]
The studies were carried out in accordance with the technique presented in Example 18.

[2] = system: mice, forced swimming; test: "Behavioral despair" test according to Porsolt; assay type: in vivo; conditions: 50 mg/kg orally
Protocol: The “behavioral despair” test according to Porsolt [R. D. Porsolt, A. Bertin and M. Jalfre.//in mice: A primary Screening Test for Antidepressants. Arch. Int. Pharmacodyn., 1977, 229, p. 327-336] is a predictive test for drugs with antidepressant action.
Stress state in mice (weighing 27-30 grams) is induced by forced swimming. Animals are placed into a cylinder (height 25 cm, diameter 10 cm) filled to ⅓ with water at temperature 21-23° C. The animals cannot escape from the cylinder by themselves. Following a short time of activity the animals develop a so called “behavioral depression” characterized by hovering of animals, immobilization duration of which can be fixed. The experiment is carried out in two days. One a first day, animals are placed into the cylinder for 15 minutes (pre-test). After removal from water, the animals are dried and preparations under testing are administered. At 24 hours, the preparations are administered again and one hour later the animals are placed into the cylinder for 6 minutes. During first two minutes the animals are actively swimming; during the subsequent four minutes, behavioral depression develops manifested by immobilization (hovering) which is fixed for 4 minutes and is measure in seconds. Compound IX and the reference antidepressant drug Fluoxetin were administered orally at a dose 50 mg/kg.

[3] = system: carrageenan edema of rat paw; test: Carrageenan edema of rat paw; assay type: in vivo, outbreed white rats; conditions: rats; 1% ointment; 4 hours post carrageenan
Protocol: The tests were conducted on males of outbreed white rats weighing 250-270 grams. The model of carrageenan edema was used which model is described in Winter et al. In: DeRosa M., Giroud J. P. Willoughby D. A. Studies of the mediators of acute inflammatory response induced in rats in different sites by carrageenan and turpentine.//J. Pharmacol. 1971. V. 104. P. 15-29.
0.1 ml 1% carrageenan solution (SERVA) was subplantarly injected into a right paw of rats. The animals were placed into individual chambers. […] Paw volume was measured using a pletismometer (Ugo Besile) at 4 hours post carrageenan administration. Therapeutic effect of the ointment was assessed by the inhibition degree of inflammatory reaction as compared to an intact left paw of the given animal and to a paw reaction of a control (untreated) group of rats. Inhibition of inflammatory reaction expressed in percent was calculated according to the formula: […]

[4] = system: mice in the model of hypoxic hypoxia with hypercapnia; test: Hypoxic hypoxia with hypercapnia in a hermetic volume; assay type: in vivo; conditions: for Duration of hypoxia (life span), M ± m: control 25.6 ± 0.6
Text: In order to imitate acute oxygen insufficiency the hypoxia model with hypercapnia in a hermetic volume was used (Luk'yanova L. D., Gatsura V. V., Pastushenkov L. V. Metodicheskiye recomendatsii po experimental'nomu izucheniju preparatov, predlagajemykh dlya klinicheskogo isuchenija v kachestve antihypoxicheskikh sredsyv (Methodological recommendations on experimental study of preparations proposed for clinical examination as anti-hypoxic agents). Moscow. 1960. P. 1-19]. […] weighing 27-29 grams were individually placed into 260 ml glass jars which were hermetically closed. As the animals consume oxygen, its concentration in the vessel lowers that results in death of the animals. Life span of the mice in minutes was recorded.

[5] = system: gastric mucosa of rats; test: Ulcerogenic effect on gastric mucosa; assay type: in vivo, outbreed rats; conditions: 30 mg/kg once intragastrally, at 24 hours, M ± m
Protocol: The tests were carried out on females of outbreed rats weighing 300-320 grams. The compounds tested were administered once intragastrally at a dose 30 mg/kg to rats deprived of feed for 24 hours prior to the test. Animals in the control group were administered distilled water in the same volume. At 24 hours the animals were sacrificed and stomachs were extracted. An empty stomach was filled with 2% formalin solution and it was placed into a beaker with formalin. 30 minutes later, the stomach was opened along the great curvature, expanded on a slide, fixed and washed with distilled water. Using the magnifying glass MBS-9 (8-fold magnification) length and width of gastric mucosa defects was measured and area in mm^2 was calculated (1 division of the magnifying glass ruler=0.1 mm). Ulcerogenic effect of a substance was assessed by ulcerous lesion area of gastric mucosa according to the technique presented in Rukovodstvo po experimental'nomu (doklinicheskomu) izucheniju novykh pharmacologicheskikh veshchestv (the Guide on Experimental (pre-clinical) Study of Novel Pharmacological Substances)./Moscow. “Remedium” publishers. 2000, 398 pages.

[6] = system: rat uterine horn's SMP; test: Serotonin-induced contracture of rat uterine horn smooth muscle preparation; parameters: species or system Wistar rats; conditions: for Inhibition of contractions of the rat uterine horn's SMP, % / Rate of contractions of the rat uterine horn's SMP during 5 minutes: serotonin 10^−5 M; for Rate of contractions of the rat uterine horn's SMP during 5 minutes: control 9
Protocol: The model of serotonin-induced soft muscular contracture of an uterine horn [Blattner H. G., Dehnert H. et al. Experiments on isolated smooth muscle preparation. Ed. J. M. Barnden and R. Colson, 1980] was created on females of Wistar rats weighing 300-350 grams. A prepared smooth muscle preparation (SMP) was placed into a thermo-regulated chamber (+37° C.) containing Tirode solution with lowered calcium content in order to prevent spontaneous contractive activity of the smooth muscle preparation. Contraction of the uterine horn was recorded using the mechanotron 6M×2B connected to the polygraph KPS-4; initial load to the object was 0.5-0.7 grams.
Contracture of the SMP was induced by introduction into incubation medium of 0.1 ml serotonin (Sigma) at concentration 10^−5 M. 30-60 seconds post administration of the mediator, a peak contraction amplitude of the uterine horn was recorded. Compound IX was introduced into the chamber at the peak amplitude of contractions or under conditions of incubation (within the same range of concentrations) for 15 minutes.
The effect of compound IX being tested was assessed by a number of contractions and by lowering the amplitude value.

[7] = system: "acetic contortions" in mice; test: Analgetic activity on the model "acetic contortions"; assay type: in vivo, white mongrel mice; conditions: dose 10 mg/kg (table title)
Protocol: as §1
wherein Ck is the number of contortions in the control group,
Co is the number of contortions in the test group.

[8] = IX 10 mg/kg alone (Analgin study)
[9] = added at the peak serotonin-induced contracture

## O=C(CCc1ccc(O)cc1)NCCc1ccccc1 [Compound IX, 3-(p-hydroxyphenyl)-propionylphenylethylamine]
[1]; [8]
  Analgetic effect, %: 43.3%
  Number of contortions for 15 minutes, M ± m: 18.8 ± 3.1
[1]; IX 10 mg/kg, Tramal 10 mg/kg, alone or combined
  Analgetic effect, %: 33.6%
[2]
  % change from the control: −21%
[2]; fixed for 4 minutes, control 195.0 ± 10.3
  immobilization time, M ± m: 154.0 ± 11.7 s
[3]
  Edema inhibition (%): 53.1%
  Paw volume gain (%): 32.9%
[4]; 10 mg/kg
  % change from the control: 0%
  Duration of hypoxia (life span), M ± m: 25.3 ± 0.8 min
[4]; 50 mg/kg
  Duration of hypoxia (life span), M ± m: 32.6 ± 2.6 min
[5]
  Area of ulcerous lesion: 0 mm^2
[6]; [9]
  Inhibition of contractions of the rat uterine horn's SMP, %: 44.4%
  Rate of contractions of the rat uterine horn's SMP during 5 minutes: 5
[6]; pre-incubation conditions
  SMP contracture after the slowed contractions: complete blockade
[6]; pre-incubation for 15 minutes
  Inhibition of contractions of the rat uterine horn's SMP, %: 55.6%
  Rate of contractions of the rat uterine horn's SMP during 5 minutes: 4
[7]; Mus musculus, ip, 0.25 h, read-out: Analgetic effect (%)
  inhibition in vivo at 10 mg/kg: 68%
[7]; Mus musculus, ip, 0.25 h, read-out: C, % to the control
  response vs control in vivo at 10 mg/kg: 32%
[7]; 60 minutes prior to acetic acid
  C ± m (the number of contortions for 15 minutes): 11.8 ± 2.9

— patent US8309766B2 (Obschestvo S. Organichennoi Otvetstvennostiyu …, priority 2005, dated 2012)
